The record followed here is US8614208B2, “Fused heterocyclic ring derivative and use thereof” (Takeda Pharmaceutical Company Limited, priority 2009, dated 2013).

In this experiment the target is T1, Smo (Mus musculus, UniProt P56726).
T1 construct: endogenous in cells; host or cells: NIH-3T3 cells stably carrying the Gli reporter plasmid
T1 sequence (P56726 33-793): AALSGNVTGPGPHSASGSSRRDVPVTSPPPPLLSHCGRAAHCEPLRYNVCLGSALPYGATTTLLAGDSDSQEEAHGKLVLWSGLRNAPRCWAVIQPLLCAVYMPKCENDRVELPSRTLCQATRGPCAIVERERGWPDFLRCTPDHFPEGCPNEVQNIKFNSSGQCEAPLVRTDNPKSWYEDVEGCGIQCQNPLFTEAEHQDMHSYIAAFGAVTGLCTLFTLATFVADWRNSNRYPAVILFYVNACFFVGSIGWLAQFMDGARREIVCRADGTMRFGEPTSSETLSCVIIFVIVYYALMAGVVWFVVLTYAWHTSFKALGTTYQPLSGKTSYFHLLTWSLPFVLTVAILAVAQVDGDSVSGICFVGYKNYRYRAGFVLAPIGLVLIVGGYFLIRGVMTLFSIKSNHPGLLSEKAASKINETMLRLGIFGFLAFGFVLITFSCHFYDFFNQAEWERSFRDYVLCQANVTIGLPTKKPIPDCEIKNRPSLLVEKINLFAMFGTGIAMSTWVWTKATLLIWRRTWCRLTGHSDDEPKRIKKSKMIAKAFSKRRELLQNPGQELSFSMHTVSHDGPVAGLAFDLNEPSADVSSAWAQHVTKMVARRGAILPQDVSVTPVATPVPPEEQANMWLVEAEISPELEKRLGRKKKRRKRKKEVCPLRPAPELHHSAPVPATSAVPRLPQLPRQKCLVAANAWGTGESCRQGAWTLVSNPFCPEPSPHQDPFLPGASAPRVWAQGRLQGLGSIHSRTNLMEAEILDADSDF
Description: Gli reporter luciferase assay in NIH-3T3/Gli reporter cells stimulated with mouse Shh-N end fragment. Type of experiment: cell-based. The settings on record: NIH3T3; 1 μM compound; NIH-3T3/Gli reporter cells with mouse Shh-N culture supernatant, 48 hr; luciferase activity, control without compound as 100; read-out: inhibitory rate (%) at 1 μM. On the procedure:
Gli reporter plasmid was constructed by inserting 8×Gli-binding site and chicken δ-crystalline promoter into the upstream of luc+ of pGL3 (Promega).
prepared in reference to the base sequence described in GenBank accession No.; X02187, and chicken genome DNA (Clontech) as a template. PCR reaction was performed using Pfu Turbo (Stratagene) and following the attached protocol. The obtained 108 bp fragment was digested with restriction enzymes BglII and HindIII, and inserted into BglII-HindIII site of pGL3 to give plasmid pGL3/δ-cry promoter.
As 8×Gli-binding site, a sequence containing eight 9-bp Gli bound consensus sequences (GACCACCCA) described in Yoon et al., J. Biol. Chem., vol. 273, pages 3496-3501 (1998) was prepared from synthetic DNA. That is, two synthetic DNAs,
were heat treated at 95° C. for 2 minutes, and incubated at 37° C. for 1 hr for annealing to give a double stranded DNA of the above-mentioned two synthetic DNAs. The obtained double stranded DNA was digested with restriction enzymes BglII and KpnI, and the obtained DNA fragment was inserted into BglII-KpnI site of pGL3/δ-cry promoter to construct plasmid pGL3/δ-cry promoter, 8×Gli binding site, i.e., Gli reporter plasmid.
HEK293 cells were grown in D-MEM medium (Invitrogen) containing 10% fetal bovine serum in a 10 cm dish and pcDNA3.1/mShh-N was introduced into the cells using FuGENE6 (Roche Applied Science). Thereafter, the HEK293 cells were cultured in a carbon dioxide gas incubator at 37° C. for 24 hours, and the medium was exchanged with D-MEM medium (Invitrogen) containing 2% fetal bovine serum. After culturing for 48 hr, a culture supernatant containing recombinant type mouse Shh-N end fragment was obtained by filtration using a filter ([…]).
Using D-MEM (Invitrogen) containing 10% fetal bovine serum, expression plasmid pcDNA3.1 and Gli reporter plasmid (pGL3/δ-cry promoter, 8×Gli binding site) produced by the method of Experimental Example 1 were introduced into NIH-3T3 cells grown in a 10 cm dish by the use of FuGENE6 (Roche Applied Science).
After culture for 24 hr, the cells were recovered, suspended in D-MEM medium containing 10% fetal bovine serum and supplemented with Geneticin (Life Technologies Oriental, Inc.) to a final concentration of 500 μg/ml, diluted to 10^4 cells/ml, plated on a 96 well plate, and cultured in a carbon dioxide gas incubator at 37° C. to give Geneticin resistant transformed cell line.
The obtained transformed cell line was cultured in a 96 well plate, mouse Shh-N end fragment obtained in Experimental Example 3 was added, and NIH-3T3/Gli reporter cell, which is a cell line capable of induction of luciferase expression, was selected.
NIH-3T3/Gli reporter cells cultured in D-MEM (Invitrogen) containing 10% fetal bovine serum were plated in a 96 well white plate at 1×10^4 cells/well, and cultured overnight in a carbon dioxide gas incubator at 37° C. The medium was removed, a compound (50 μl) and culture supernatant of mouse Shh-N end fragment-expressing HEK293 (D-MEM medium containing 2% fetal bovine serum, 50 μl) were added, and the cells were cultured for 48 hr in a carbon dioxide gas incubator at 37° C. Bright-Glo (Promega, 50 μl) was added, and the mixture was stirred, after which luciferase activity was measured by EnVision (PerkinElmer). The inhibition rate was calculated based on the luciferase activity of the control without addition of the compound as 100.
As for `Cc1nc2c(c(OCC(F)(F)F)c(C(=O)NC3CCN(C(=O)CO)CC3)n2C)c(=O)n1Cc1ccccc1Cl` [Example 14, 3-(2-chlorobenzyl)-N-[1-(hydroxyacetyl)piperidin-4-yl]-2,7-dimethyl-4-oxo-5-(2,2,2-trifluoroethoxy)-4,7-dihydro-3H-pyrrolo[2,3-d]pyrimidine-6-carboxamide], the inhibition at 1 µM is 95%.

Consider `CCc1nc2c(c(OCC(F)(F)F)c(C(=O)NC3CCN(C(=O)CO)CC3)n2C)c(=O)n1Cc1cccc(Cl)c1` [Example 17, 3-(3-chlorobenzyl)-2-ethyl-N-[1-(hydroxyacetyl)piperidin-4-yl]-7-methyl-4-oxo-5-(2,2,2-trifluoroethoxy)-4,7-dihydro-3H-pyrrolo[2,3-d]pyrimidine-6-carboxamide], for which the inhibition at 1 µM was 98%.

Consider `COc1ccccc1Cn1c(C)nc2c(c(OCC(F)(F)F)c(C(=O)NC3CCN(C(=O)CO)CC3)n2C)c1=O` [Example 8, N-[1-(hydroxyacetyl)piperidin-4-yl]-3-(2-methoxybenzyl)-2,7-dimethyl-4-oxo-5-(2,2,2-trifluoroethoxy)-4,7-dihydro-3H-pyrrolo[2,3-d]pyrimidine-6-carboxamide], for which the inhibition at 1 µM is 96%. Consider `CCc1nc2c(c(OCC(F)(F)F)c(C(=O)NC3CCN(C(=O)CO)CC3)n2C)c(=O)n1CC(=O)c1ccccc1` [Example 13, 2-ethyl-N-[1-(hydroxyacetyl)piperidin-4-yl]-7-methyl-4-oxo-3-(2-oxo-2-phenylethyl)-5-(2,2,2-trifluoroethoxy)-4,7-dihydro-3H-pyrrolo[2,3-d]pyrimidine-6-carboxamide], for which the inhibition at 1 µM is 97%. Under `Cc1nc2c(c(OC(C)C)c(C(=O)NC3CCN(C(=O)CO)CC3)n2C)c(=O)n1-c1ccccc1` [Example 29, N-[1-(hydroxyacetyl)piperidin-4-yl]-2,7-dimethyl-5-(1-methylethoxy)-4-oxo-3-phenyl-4,7-dihydro-3H-pyrrolo[2,3-d]pyrimidine-6-carboxamide] stands 99%; under `Cc1nc2c(c(OCC(F)(F)F)c(C(=O)NC3CCN(C(=O)CO)CC3)n2C)c(=O)n1Cc1ccccc1` [Example 4, 3-benzyl-N-[1-(hydroxyacetyl)piperidin-4-yl]-2,7-dimethyl-4-oxo-5-(2,2,2-trifluoroethoxy)-4,7-dihydro-3H-pyrrolo[2,3-d]pyrimidine-6-carboxamide], 98%. Under `CCc1nc2c(c(OCC(F)(F)F)c(C(=O)NC3CCOCC3)n2C)c(=O)n1CC(=O)c1ccccc1` [Example 16, 2-ethyl-7-methyl-4-oxo-3-(2-oxo-2-phenylethyl)-N-(tetrahydro-2H-pyran-4-yl)-5-(2,2,2-trifluoroethoxy)-4,7-dihydro-3H-pyrrolo[2,3-d]pyrimidine-6-carboxamide] stands 97%. In the case of `COc1cccc(Cn2c(C)nc3c(c(OCC(F)(F)F)c(C(=O)NC4CCN(C(=O)CO)CC4)n3C)c2=O)c1` [Example 6, N-[1-(hydroxyacetyl)piperidin-4-yl]-3-(3-methoxybenzyl)-2,7-dimethyl-4-oxo-5-(2,2,2-trifluoroethoxy)-4,7-dihydro-3H-pyrrolo[2,3-d]pyrimidine-6-carboxamide], the inhibition at 1 µM is 97%. In the case of `CCc1nc2c(c(OC(C)C)c(C(=O)NC3CCN(C(=O)CO)CC3)n2C)c(=O)n1CC(=O)c1ccccc1` [Example 22, 2-ethyl-N-[1-(hydroxyacetyl)piperidin-4-yl]-7-methyl-5-(1-methylethoxy)-4-oxo-3-(2-oxo-2-phenylethyl)-4,7-dihydro-3H-pyrrolo[2,3-d]pyrimidine-6-carboxamide], the inhibition at 1 µM is 98%. Take `CCc1nc2c(c(OC(C)C)c(C(=O)NC3CCN(C(=O)CO)CC3)n2C)c(=O)n1CC(=O)c1ccc(F)cc1` [Example 34, 2-ethyl-3-[2-(4-fluorophenyl)-2-oxoethyl]-N-[1-(hydroxyacetyl)piperidin-4-yl]-7-methyl-5-(1-methylethoxy)-4-oxo-4,7-dihydro-3H-pyrrolo[2,3-d]pyrimidine-6-carboxamide]: the inhibition at 1 µM is 97%. The figure for `CCc1nc2c(c(OCC(F)(F)F)c(C(=O)NC3CC[S+]([O-])CC3)n2C)c(=O)n1CC(=O)c1ccccc1` (stereo not shown) [Example 21, 2-ethyl-7-methyl-N-(1-oxidetetrahydro-2H-thiopyran-4-yl)-4-oxo-3-(2-oxo-2-phenylethyl)-5-(2,2,2-trifluoroethoxy)-4,7-dihydro-3H-pyrrolo[2,3-d]pyrimidine-6-carboxamide] is 97%; for `CCOc1c(C(=O)NC2CCN(C(=O)CO)CC2)sc2nc(C)n(CC(=O)c3ccccc3)c(=O)c12` [Example 18, 5-ethoxy-N-[1-(hydroxyacetyl)piperidin-4-yl]-2-methyl-4-oxo-3-(2-oxo-2-phenylethyl)-3,4-dihydrothieno[2,3-d]pyrimidine-6-carboxamide] it is 97%; for `CCc1nc2c(c(OCC(F)(F)F)c(C(=O)NC3CCN(C(=O)CO)CC3)n2C)c(=O)n1CC(=O)c1ccc(F)cc1` [Example 33, 2-ethyl-3-[2-(4-fluorophenyl)-2-oxoethyl]-N-[1-(hydroxyacetyl)piperidin-4-yl]-7-methyl-4-oxo-5-(2,2,2-trifluoroethoxy)-4,7-dihydro-3H-pyrrolo[2,3-d]pyrimidine-6-carboxamide] it is 96%. The figure for `CCOc1c(C(=O)NC2CCN(C(=O)CO)CC2)n(C)c2nc(C)n(CC(=O)c3ccccc3)c(=O)c12` [Example 2, 5-ethoxy-N-[1-(hydroxyacetyl)piperidin-4-yl]-2,7-dimethyl-4-oxo-3-(2-oxo-2-phenylethyl)-4,7-dihydro-3H-pyrrolo[2,3-d]pyrimidine-6-carboxamide] is 95%; for `CCCCCn1c(C)nc2c(c(OCC(F)(F)F)c(C(=O)NC3CCN(C(=O)CO)CC3)n2C)c1=O` [Example 11, N-[1-(hydroxyacetyl)piperidin-4-yl]-2,7-dimethyl-4-oxo-3-pentyl-5-(2,2,2-trifluoroethoxy)-4,7-dihydro-3H-pyrrolo[2,3-d]pyrimidine-6-carboxamide] it is 96%; for `Cc1nc2c(c(OC(C)C)c(C(=O)NC3CCN(C(=O)CO)CC3)n2C)c(=O)n1CC(=O)c1ccccc1` [Example 3, N-[1-(hydroxyacetyl)piperidin-4-yl]-2,7-dimethyl-5-(1-methylethoxy)-4-oxo-3-(2-oxo-2-phenylethyl)-4,7-dihydro-3H-pyrrolo[2,3-d]pyrimidine-6-carboxamide] it is 93%. Under `Cc1nc2c(c(OCC(F)(F)F)c(C(=O)NC3CCN(C(=O)CO)CC3)n2C)c(=O)n1Cc1cccc(Cl)c1` [Example 10, 3-(3-chlorobenzyl)-N-[1-(hydroxyacetyl)piperidin-4-yl]-2,7-dimethyl-4-oxo-5-(2,2,2-trifluoroethoxy)-4,7-dihydro-3H-pyrrolo[2,3-d]pyrimidine-6-carboxamide] stands 98%; under `Cc1nc2c(c(OCC(F)(F)F)c(C(=O)NC3CCN(C(=O)CO)CC3)n2C)c(=O)n1Cc1ccc(F)cc1` [Example 5, 3-(4-fluorobenzyl)-N-[1-(hydroxyacetyl)piperidin-4-yl]-2,7-dimethyl-4-oxo-5-(2,2,2-trifluoroethoxy)-4,7-dihydro-3H-pyrrolo[2,3-d]pyrimidine-6-carboxamide], 100%; under `Cc1nc2c(c(OCC(F)(F)F)c(C(=O)NC3CCN(C(=O)CO)CC3)n2C)c(=O)n1CCc1ccccc1` [Example 12, N-[1-(hydroxyacetyl)piperidin-4-yl]-2,7-dimethyl-4-oxo-3-(2-phenylethyl)-5-(2,2,2-trifluoroethoxy)-4,7-dihydro-3H-pyrrolo[2,3-d]pyrimidine-6-carboxamide], 98%.
